Data reported in patent publication US20220087275A1, “MAGNESIUM ION AS ANTIBACTERIAL AGENT” (THE STATE OF ISRAEL, MINISTRY OF AGRICULTURE & RURAL …, priority 2016, published 2022).
Read-outs that look alike come from different tables or passages of the source.

Legend:
[1] = test system: Bacillus subtilis wild strain NCIB3610; assay: Pellicle (biofilm) formation in LBGM broth; type: cell-based; conditions: for biofilm formation by B. subtilis: NaCl or CaCl2 added to LBGM, results not shown; for pellicle formation by B. subtilis: LBGM medium, 30° C., 24 h
Experimental: Plates were incubated at 30° C. for 24 h.

epsA-O operon = assay: β-Galactosidase transcriptional fusion, matrix gene expression (eps); type: cell-based, Bacillus subtilis; conditions: for expression of the eps operon: similar concentrations of NaCl or CaCl2
Source text: (§1) To analyze the effect of magnesium ions on matrix gene expression a transcriptional fusions of the promoters for eps and tapA to the gene encoding β galactosidase were used. Samples of generated pellicles as described above were collected and resuspended in phosphate-buffered saline (PBS) buffer. Typical long bundled chains of cells in the biofilm colony were disrupted using mild sonication as described previously. Optical density of the cell samples was normalized using OD600. One milliliter of cell suspensions was collected and assayed for (3-Galactosidase activity as described previously.
(§2) The effect of Mg^2+ ions on matrix gene expression was examined by using transcriptional fusions of the promoters for epsA-O and tapA to the gene encoding β galactosidase.

tapA operon [2] = assay: β-Galactosidase transcriptional fusion, matrix gene expression (tapA); type: cell-based, Bacillus subtilis; conditions: for expression of the tapA operon: similar concentrations of NaCl or CaCl2
Source text: as §1, §2

B. subtilis NCIB3610 = conditions: LBGM, tested concentrations (5-100 mM MgCl2)
Experimental: Initially, the cells were grown in shaking cultures over night at 23° C./150 rpm in LB to around 2×10^9 CFU per ml. […] The absorbance of the cultures at 600 nm was measured periodically for each culture for 9 hours. Each condition had 3 replicates, and the growth curve experiments were repeated twice.

B. subtilis [3] = conditions: at 50 mM and higher (50 and 80 mM tested)
Source text: Further, the effect of magnesium ions on biofilm formation by B. subtilis within orange juice enriched medium, was examined.

B. subtilis [4] = test system: B. subtilis
Experimental: The effect of magnesium ions on biofilm formation within cow's milk was examined. A skilled artisan will appreciate that magnesium concentration within cow's milk typically ranges between 4-6 mM.

tapA operon [5] = conditions: increase of 1, 3 or 5 mM; particularly 5 mM MgCl2
Experimental: The effect of increase in concentration of Mg′ within milk on the expression of tapA operon, which is one of the major operon for matrix production, was examined. For this purpose, B. subtilis were grown within cow's milk and cow's milk with an increase of 1 mM, 3 mM or 5 mM in concentration of magnesium ions. Further, transcriptional fusions of tapA promoter to the gene encoding cyan fluorescent protein (CFP) were utilized.

B. subtilis [6] = conditions: milk supplemented with additional 3 mM or 5 mM MgCl2
Source text: The effect of increase in the concentration of magnesium ions was examined. […] The survival rate of bacteria following pasteurization was examined.

[7] = Experimental: In order to examine milk clotting parameters, milk samples obtained from the dairy farm of the Agricultural Research Organization (ARO; Bet Dagan, Israel). […] Milk-clotting parameters such as rennet clotting time (RCT; min) and curd firmness (CF; V) after 90 min (CF-90) which are measured with an Optigraph instrument (Ysebaert, Frepillon, France) as described by Leitner et al. (2011). Results are presented in a graph. The point in which the curve is split into two curves, represents the rennet Clotting Time (RCT), which is the time between the addition of the clotting enzyme and the beginning of the coagulation process. The curd firmness is derived from the distance of the two curves in the graph 30 min after the addition of the clotting enzyme, or 90 minutes after the addition of the clotting enzyme.
[8] = 50 mM or 100 mM MgCl2; B. subtilis culture, 5 hours, 37° C.
Experimental: Cultures were incubated for 5 hours at 37° C. and 50 rpm and pH was measured every hour using pH strips.

[9] = test system: Bacillus subtilis wild strain NCIB3610; conditions: high concentrations of Mg ions; solid LBGM, 30° C., 72 h
Experimental: For routine growth, all strains were propagated in Lysogeny broth (LB; 10 g of tryptone, 5 g of yeast extract and 5 g of NaCl per liter) or on solid LB medium supplemented with 1.5% agar. For biofilm generation, bacteria were grown to stationary phase in LB medium at 37° C. in shaking culture to around 1×10^8 CFU per ml. Biofilms were generated at 30° C. in the biofilm promoting medium LBGM (LB+1% (v/v) glycerol+0.1 mM MnSO4). […] For colony type biofilm formation, 3 μl of the cells (around 3×10^5 CFU) was spotted onto LBGM medium solidified with 1.5% agar as described previously. Plates were incubated at 30° C. for 72 h prior to analysis. For pellicle formation, 5 μl of the cells (around 5×10^5 CFU) was mixed within 4 ml of LBGM broth in 12-well plates (Costar). Plates were incubated at 30° C. for 24 h. Images were taken using a Zeiss Stemi 2000-C microscope with an axiocam ERc 5s camera.

[10] = test system: B. subtilis cells (YC161 with Pspank-gfp); conditions: 25 mM MgCl2 and higher; 24 h in LBGM
Experimental: For fluorescent microscopy, the strain YC161 that produced GFP constitutively, was used. The strain was first grown in shaking culture for 5 h 37° C./150 rpm in LB to around 1×10^8 CFU per ml. Next, 5 μl (around 5×10^5 CFU) of suspension from the generated culture was introduced into 4 ml of LBGM medium and incubated at 30° C. for 24 h statically. Afterwards, one milliliter of suspension from each sample was collected, mildly sonicated (10 sec/20% Amp/5) and centrifuged at 5000 rpm for 2 min. Next, the supernatant was removed and the pellet was re-suspended by pipetting. For microscopic observation, 34, from the samples were transferred onto a glass slide and visualized in a transmitted light microscope using Nomarski differential interference contrast (DIC), at ×40 magnification. A confocal laser scanning microscope was used to visualize GFP expression of strain YC161 using an Olympus IX81 confocal laser scanning microscope (Japan) equipped with 488 nm argon-ion and 543 nm helium neon lasers.
Next, the effect of magnesium ions was visualized microscopically by testing bundling phenotype of fluorescently tagged B. subtilis cells (YC161 with Pspank-gfp), that produce GFP constitutively.

[11] = test system: Bacillus subtilis NCIB 3610
Experimental: Additional experiments were conducted in order to evaluate the effect of magnesium ions on colony type biofilm formation by Bacillus subtilis on a solid surface. First a starter culture was prepared by growing bacteria from the strain Bacillus subtilis NCIB 3610 in an LB (Lysogeny broth) medium at 37° C., 150 rpm for 5 hours. […] Following these steps, 3 μl of the starter culture were spotted onto each of the solid biofilm promoting mediums. The samples were incubated at 30° C. for 72 hours prior to analysis. Images were taken using a Zeiss Stemi 2000-C microscope with an axiocam ERc 5s camera.

[12] = elevated concentrations of Mg2+ ions, pellicles in LBGM

SMILES: [Ca+2].[Cl-].[Cl-] [CaCl2]
- biofilm formation by B. subtilis [1]: none of those compounds could inhibit the biofilm formation in the same manner as MgCl2
- expression of the eps operon (epsA-O operon): not downregulated in a similar manner
- expression of the tapA operon (tapA operon [2]): not downregulated in a similar manner

SMILES: [Cl-].[Cl-].[Mg+2] [MgCl2, magnesium chloride]
- pellicle formation by B. subtilis [1]: inhibited notably pellicle formation by B. subtilis in a concentration dependent manner
- bacterial growth (B. subtilis NCIB3610): did not affect bacterial growth
- colony type biofilm formation within orange juice enriched medium (B. subtilis [3]): inhibits colony type biofilm formation
- reduction in eps expression (epsA-O operon; [12]): around 4 fold
- decrease in tapA expression (tapA operon [2]; [12]): ~14.5 fold
- biofilm bundles within milk (B. subtilis [4]; 5 mM increase of MgCl2 concentration): biofilm bundles are almost totally diminished
- biofilm formation by B. subtilis within milk (B. subtilis [4]; cow's milk, magnesium increase of 1, 3 or 5 mM): inhibit biofilm formation by B. subtilis within milk
- bacterial growth within milk (B. subtilis [4]; increased Mg ions concentration within milk): not significantly affected
- biofilm formation by B. subtilis within milk (B. subtilis [4]; magnesium concentration increased by 1 mM): inhibitory effect of Mg2+ ions is notable
- expression of the tapA operon within milk (tapA operon [5]): reduced drastically
- susceptibility of bacteria to heat pasteurization (B. subtilis [6]): increase the susceptibility of bacteria to heat pasteurization
- decrease in RCT ([7]; addition of 1 mM MgCl2): about 32%
- increase in curd firmness ([7]; addition of 1 mM MgCl2): about 37%
- decrease in RCT ([7]; addition of 3 mM MgCl2): ~51%
- increase in curd firmness ([7]; addition of 3 mM MgCl2): ~54%
- decrease in RCT ([7]; addition of 5 mM MgCl2): ~62%
- increase in curd firmness ([7]; addition of 5 mM MgCl2): ~69%
- decrease in RCT ([7]; addition of 7 mM MgCl2): ~70%
- increase in curd firmness ([7]; addition of 7 mM MgCl2): ~82%
- decrease in RCT ([7]; addition of 10 mM MgCl2): ~84%
- increase in curd firmness ([7]; addition of 10 mM MgCl2): ~84%
- decrease in RCT ([7]; addition of 15 mM MgCl2): ~73%
- increase in curd firmness ([7]; addition of 15 mM MgCl2): ~90%
- decrease in RCT ([7]; addition of 20 mM MgCl2): ~74%
- increase in curd firmness ([7]; addition of 20 mM MgCl2): ~72%
- pH of the milk [8]: does not affect the pH of the milk
- colony type biofilm formation [9]: inhibited significantly
- bundling ability of B. subtilis cells [10]: significant reduction in bundling ability
- biofilm formation by B. subtilis on solid surface ([11]; magnesium ions 20 mM or 50 mM spread onto a solid surface): reduced biofilm formation
- biofilm formation onto pre-treated surface, stronger effect ([11]; solution of 20 mM MgCl2 as printed (second sentence)): inhibitory effect is more significant
- biofilm formation by B. subtilis onto pre-treated surface ([11]; surface spread with solution of 20 mM MgCl2, 30° C., 72 h): inhibitory effect on biofilm formation

SMILES: O=S(=O)([O-])[O-].[Mg+2] [MgSO4, magnesium sulfate]
- pellicle formation by B. subtilis [1]: inhibited the pellicle formation

SMILES: [Cl-].[Na+] [NaCl]
- biofilm formation by B. subtilis [1]: none of those compounds could inhibit the biofilm formation in the same manner as MgCl2
- expression of the eps operon (epsA-O operon): not downregulated in a similar manner
- expression of the tapA operon (tapA operon [2]): not downregulated in a similar manner
